Test results from patent US20210147900A1, “METHODS AND COMPOSITIONS FOR DETECTING BETA-HYDROXYBUTYRATE IN BIOLOGICAL FLUIDS” (F.A.T. Stats LLC, priority 2019, published 2021).

Test: Solubility / appearance of coenzyme Q with β-cyclodextrin in water or Tris/NaOH buffer
Type: physicochemical
Settings: for Appearance: in water, 5 hours at 75° C. and 5 hours at 85° C.
Description: First, 0.107 grams of β-cyclodextrin was dissolved in 4.8 grams of the Tris/NaOH buffer solution (pH 8.7). This mixture this heated at 45° C. for 5 minutes and then 0.082 g of coenzyme Q0 was added. Heating was continued until coenzyme Q0 was no longer visible as a solid. The coenzyme Q0/β-cyclodextrin solution was used within 2 hours of making it. Alternatively, 0.0074 grams of coenzyme Q0 and 0.0481 grams of β-cyclodextrin was mixed with 1.2070 grams water. This mixture was heated at 50° C. for 20 minutes with stirring. […] This procedure results in a fully solubilized form of coenzyme Q0 which is optically transparent and has no visible particles of coenzyme Q0 in the mixture. It is important that the coenzyme Q0 mixture is fully soluble so that it may be mixed with other water-soluble ingredients and applied to a paper test strip for further reactions with biological solutes. If the coenzyme Q0/β-cyclodextrin mixture is not water soluble, it cannot provide a uniform distribution of reactions for the test for BHB in a biological fluid as disclosed herein.
The procedure for solubilizing coenzyme Q10 in U.S. Patent Application Publication No. US 2007/0202090 A1 was followed and results are listed below in Table 17. Coenzyme Q10 and β-cyclodextrin were combined with water in the following molar ratios of coenzyme Q10 to β-cyclodextrin: 1:1; 1:5; and 1:10. Each solution was heated for 5 hours at 75° C. and then an additional 5 hours at 85° C.

Row | Appearance (molar ratio coenzyme Q10 to β-cyclodextrin 1:1) | Appearance (molar ratio coenzyme Q10 to β-cyclodextrin 1:5) | Appearance (molar ratio coenzyme Q10 to β-cyclodextrin 1:10) | Incorporation in basic buffer solution with β-cyclodextrin (same procedure as Example 2 (Tris/NaOH buffer pH 8.7, heating)) | Structure (SMILES) | Appearance of mixture with β-cyclodextrin in water (0.0074 g coenzyme Q0, 0.0481 g β-cyclodextrin, 1.2070 g water, 50° C. for 20 minutes with stirring)
1 | – | – | – | – | COC1=C(OC)C(=O)C(C)=CC1=O [coenzyme Q0, 2,3-dimethoxy-5-methyl-p-benzoquinone] | transparent solution with no visible particles
2 | not transparent; | not transparent; | not transparent; | could not be adequately incorporated | COC1=C(OC)C(=O)C(C/C=C(\C)CC/C=C(\C)CC/C=C(\C)CC/C=C(\C)CC/C=C(\C)CC/C=C(\C)CC/C=C(\C)CC/C=C(\C)CC/C=C(\C)CCC=C(C)C)=C(C)C1=O [coenzyme Q10] | –
